In US11925690B2, “Bifunctional molecules for targeting Rpn11” (AMPHISTA THERAPEUTICS LTD, priority 2018, dated 2024):

Legend:
[1] = biological target: T1, Brd4 (Homo sapiens, UniProt O60885); test: Mechanistic evaluation: Brd4 degradation after inhibitor pre-treatment; type: cell-based; details: HEK293, 1 μM degrader 4 h
T1 construct: immunoblot analysis of Brd4 following 4 h treatment of HEK293 cells; endogenous in cells; host or cells: HEK293 (CRL-1573)
Procedure: HeLa (5×10^5) and HEK293 (1×10^6) cells were seeded in standard 6-well plates (2 mL medium) overnight before pre-treatment with inhibitors (10 μM bortezomib, 10 μM capzimin, 10 μM JQ1). After a 0.5 h pre-incubation time, cells were subsequently treated with vehicle, 1 μM MZ1 or 1 μM 11JQ15, yielding a final overall DMSO concentration of 0.2% v/v. After 4 h incubation, cells were washed with DPBS (Gibco) and lysed using 85 μL RIPA buffer (Sigma-Aldrich) supplemented with cOmplete Mini EDTA-free protease inhibitor cocktail (Roche) and benzonase. Lysates were clarified by centrifugation (20000 g, 10 min, 4° C.) and the total protein content of the supernatant was quantified using a Bradford colorimetric assay. Samples were prepared using equal amounts of total protein and LDS sample buffer (Invitrogen).
Brd4 band intensities were normalized to tubulin loading control and reported in FIG. 6B as % of the average 0.1% DMSO vehicle intensity. Each bar is mean±SEM of three independent experiments performed in duplicate (n=3).

[2] = tested on: Brd4, c-MYC, cleaved PARP (C-PARP); test: Immunoblot of Brd4, c-MYC and cleaved PARP in MV4-11 cells; type: cell-based
Procedure: MV4-11 (0.7×10^6 cells/mL) were seeded in 10 cm plates (10 mL DMEM supplemented with 10% FBS and L-glutamine) overnight before treatment with compounds at the desired concentration and with a final DMSO concentration of 0.1% v/v. After 6 h incubation time, cells were washed with 2× with DPBS (Gibco) and lysed using 85 μL RIPA buffer (Sigma-Aldrich) supplemented with cOmplete Mini EDTA-free protease inhibitor cocktail (Roche) and benzonase. Lysates were clarified by centrifugation (20000 g, 10 min, 4° C.) and the total protein content of the supernatant was quantified using a Bradford colorimetric assay. Samples were prepared using equal amounts of total protein and LDS sample buffer (Invitrogen). For immunoblot analysis, the following antibodies were used: anti-Brd4 (ab128874, 1:1,000 dilution), anti-cmyc (ab32072, 1:1000 dilution), anti-CPARP (CST-9541T, 1:1,000 dilution), and anti-Tubulin hFAB-rhodamine (BioRad, 12004166, 1:10000 dilution).

[3] = MV4-11, increasing concentrations, 6 h

Row | Brd4 degradation in the presence of JQ1 ([1]; 10 μM JQ1 pre-treatment 0.5 h) | Brd4 degradation in the presence of bortezomib ([1]; 10 μM bortezomib pre-treatment 0.5 h) | Brd4 degradation in the presence of capzimin ([1]; 10 μM capzimin pre-treatment 0.5 h) | SMILES | increase in C-PARP compared with JQ1 and 11JQ18 ([2]; MV4-11, 6 h) | Brd4 and c-MYC levels (FIG. 9) [2, 3] | cleaved PARP (FIG. 9) [2, 3]
1 | completely blocked | completely blocked | significantly blocked | Cc1sc2c(c1C)C(c1ccc(Cl)cc1)=N[C@@H](CC(=O)NCCOCCNC(=O)c1cc(SC(=O)c3ccccc3)c3ncc(C(=O)NCCc4nccs4)cc3c1)c1nnc(C)n1-2 [Example 11JQ15] | – | – | –
2 | – | – | – | Cc1sc2c(c1C)C(c1ccc(Cl)cc1)=N[C@@H](CC(=O)NCCCCNC(=O)c1cc(SC(=O)c3ccccc3)c3ncc(C(=O)NCCc4nccs4)cc3c1)c1nnc(C)n1-2 [Example 11JQ16] | significantly greater than inhibitor (JQ1) alone and the negative control (11JQ18) | depletion of Brd4 and c-MYC levels | corresponding increase in cleaved PARP
